Source: patent publication US7803930B2, “Antisense modulation of apolipoprotein B-expression” (Isis Pharmaceuticals, Inc., priority 2002, dated 2010)
In the oligonucleotide strings, read from the 5' end, every base follows the letter of its sugar. An asterisk marks phosphorothioate; unmarked linkages are phosphodiester. Other units and linkages are bracketed, terminal groups are in braces. A string of capitals states the bases alone. e = 2'-O-(2-methoxyethyl) (MOE); [5mC] = 5-methylcytosine; d = 2'-deoxy (DNA)

Tested on: human apolipoprotein B mRNA
Test: Inhibition of human apolipoprotein B mRNA levels in HepG2 cells, quantitative real-time PCR
Type: cell-based
Details: HepG2 cells; human apolipoprotein B mRNA; oligonucleotides targeting genomic sequence SEQ ID NO 334; averages from two experiments
How it was run: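 Apolipoprotein B transcript was quantified by one-step TaqMan RT-PCR, normalized to GAPDH or RiboGreen RNA, and expressed as percent inhibition against an untreated-sample standard curve. HepG2 cells were harvested 16-24 h after oligonucleotide exposure, which was delivered with 3.75 μg/mL Lipofectin over 4-7 h at 80% confluency.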

Substance	% INHIB [%]
301149 (eA*eG*e[5mC]*eA*eT*dA*dT*dT*dT*dT*dG*dA*dT*dG*dA*eG*e[5mC]*eT*eG*eA; antisense) [compound 301149]	44
301150 (eG*eA*eA*eA*eG*dG*dA*dA*dG*dG*dA*d[5mC]*dT*dA*dG*e[5mC]*eA*eT*eA*eT; antisense) [compound 301150]	39
301151 (e[5mC]*e[5mC]*eT*e[5mC]*eT*d[5mC]*d[5mC]*dA*dA*dT*d[5mC]*dT*dG*dT*dA*eG*eA*e[5mC]*e[5mC]*e[5mC]; antisense) [compound 301151]	28
301152 (e[5mC]*eT*eG*eG*eA*dT*dA*dA*d[5mC]*dT*d[5mC]*dA*dG*dA*d[5mC]*e[5mC]*eT*eT*eT*eG; antisense) [compound 301152]	40
301153 (eA*eG*eT*e[5mC]*eA*dG*dA*dA*dA*dA*d[5mC]*dA*dA*d[5mC]*d[5mC]*eT*eA*eT*eT*e[5mC]; antisense) [compound 301153]	11
301154 (e[5mC]*eA*eG*e[5mC]*e[5mC]*dT*dG*d[5mC]*dA*dT*d[5mC]*dT*dA*dT*dA*eA*eG*eT*e[5mC]*eA; antisense) [compound 301154]	31
301155 (eA*eA*eA*eG*eA*dA*dT*dT*dA*d[5mC]*d[5mC]*d[5mC]*dT*d[5mC]*d[5mC]*eA*e[5mC]*eT*eG*eA; antisense) [compound 301155]	33
301156 (eT*e[5mC]*eT*eT*eT*d[5mC]*dA*dA*dA*d[5mC]*dT*dG*dG*d[5mC]*dT*eA*eG*eG*e[5mC]*eA; antisense) [compound 301156]	39
301157 (eG*e[5mC]*e[5mC]*eT*eG*dG*d[5mC]*dA*dA*dA*dA*dT*dT*d[5mC]*dT*eG*e[5mC]*eA*eG*eG; antisense) [compound 301157]	37
301158 (e[5mC]*eT*eA*e[5mC]*e[5mC]*dT*d[5mC]*dA*dA*dA*dT*d[5mC]*dA*dA*dT*eA*eT*eG*eT*eT; antisense) [compound 301158]	28
301159 (eT*eG*e[5mC]*eT*eT*dT*dA*d[5mC]*d[5mC]*dT*dA*d[5mC]*d[5mC]*dT*dA*eG*e[5mC]*eT*eA*e[5mC]; antisense) [compound 301159]	36
301160 (eA*e[5mC]*e[5mC]*eT*eT*dG*dT*dG*dT*dG*dT*d[5mC]*dT*d[5mC]*dA*e[5mC]*eT*e[5mC]*eA*eA; antisense) [compound 301160]	49
301161 (eA*eT*eG*e[5mC]*eA*dT*dT*d[5mC]*d[5mC]*d[5mC]*dT*dG*dA*d[5mC]*dT*eA*eG*e[5mC]*eA*e[5mC]; antisense) [compound 301161]	34
301162 (antisense e[5mC]*eA*eT*e[5mC]*eT*d[5mC]*dT*dG*dA*dG*d[5mC]*d[5mC]*d[5mC]*d[5mC]*dT*eT*eA*e[5mC]*e[5mC]*eA) [compound 301162]	24
301163 (antisense eG*e[5mC]*eT*eG*eG*dG*d[5mC]*dA*dT*dG*d[5mC]*dT*d[5mC]*dT*d[5mC]*eT*e[5mC]*e[5mC]*e[5mC]*e[5mC]) [compound 301163]	51
301164 (antisense eG*e[5mC]*eT*eT*eT*d[5mC]*dG*d[5mC]*dA*dG*d[5mC]*dT*dG*dG*dG*e[5mC]*eA*eT*eG*e[5mC]) [compound 301164]	55
301165 (antisense eA*e[5mC]*eT*e[5mC]*e[5mC]*dT*dT*dT*d[5mC]*dT*dA*dT*dA*d[5mC]*d[5mC]*eT*eG*eG*e[5mC]*eT) [compound 301165]	47
301166 (antisense eA*eT*eT*e[5mC]*eT*dG*d[5mC]*d[5mC]*dT*d[5mC]*dT*dT*dA*dG*dA*eA*eA*eG*eT*eT) [compound 301166]	38
301167 (antisense e[5mC]*e[5mC]*eA*eA*eG*d[5mC]*d[5mC]*dT*d[5mC]*dT*dT*dT*dA*d[5mC]*dT*eG*eG*eG*e[5mC]*eT) [compound 301167]	29
